Laboratory results taken from PubChem BioAssay (NCI).
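A five-concentration, 48-hour dose response in 96-well plates underlies each endpoint, interpolated linearly between surrounding concentrations. The concentration for 50% growth inhibition is given as GI50. At the TGI there is no net growth.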

Tests used:
Assay in all cases: NCI anticancer screen, dose series, 48 h
[1] = system: HS 578T breast
[2] = system: MCF7 breast
[3] = system: MDA-MB-231 breast
[4] = system: PC-3 prostate
[5] = system: T-47D breast
[6] = system: DMS 273 small cell lung
[7] = system: KM20L2 colon
[8] = system: M19-MEL melanoma
[9] = system: SNB-78 CNS

Structure (SMILES): Cc1c(C)c2ccc(OC/C=C3\CCC(=O)O3)cc2oc1=O
- GI50 [1]: 20.2 µM
- TGI [1]: 55.9 µM
- GI50 [2]: 11 µM
- TGI [2]: 32.5 µM
- GI50 [3]: 16 µM
- TGI [3]: 30 µM
- GI50 [4]: 13.4 µM
- TGI [4]: 31 µM
- GI50 [5]: 14.5 µM
- TGI [5]: 47.8 µM

Structure (SMILES): CCO[C@@H]1C2C=CC(C2)[C@H]1[N+](=O)[O-] (some centres undefined)
- TGI [6]: > 100 µM
- TGI [7]: > 100 µM
- TGI [8]: > 100 µM
- TGI [9]: > 100 µM

Structure (SMILES): Fc1ccc(Nc2nc(NCCNc3ccnc4cc(Cl)ccc34)nc(N3CCOCC3)n2)cc1
- GI50 [1]: 7.32 µM
- TGI [1]: 28.9 µM
- GI50 [2]: 3.43 µM
- TGI [2]: 14.7 µM
- GI50 [3]: 3.05 µM
- TGI [3]: 11.1 µM
- GI50 [4]: 4.87 µM
- TGI [4]: 18.5 µM
- GI50 [5]: 10.9 µM
- TGI [5]: 27.4 µM

Structure (SMILES): O=c1[nH]cnc2c(C3OC(CO)C(O)C3O)scc12 (centres undefined)
- GI50 [1]: > 100 µM
- TGI [1]: > 100 µM
- GI50 [2]: 50.1 µM
- TGI [2]: > 100 µM
- GI50 [3]: 37.5 µM
- TGI [3]: > 100 µM
- GI50 [4]: 37.9 µM
- TGI [4]: > 100 µM
- GI50 [5]: > 100 µM
- TGI [5]: > 100 µM

Structure (SMILES): COc1cc2cc(Oc3ccc(NC(=O)c4ccc(Cl)c(C(F)(F)F)c4)cc3)c(C)nc2cc1OC
- GI50 [1]: 16.6 µM
- TGI [1]: 64 µM
- GI50 [2]: 8.95 µM
- TGI [2]: > 100 µM
- GI50 [3]: 11.4 µM
- TGI [3]: 27.5 µM
- GI50 [4]: 4.3 µM
- TGI [4]: > 100 µM
- GI50 [5]: 5.69 µM
- TGI [5]: 99.6 µM

Structure (SMILES): CC(=O)NC(CCCN(Cc1ccccc1)C(=O)N(CCCl)N=O)C(=O)NCc1ccccc1 (centres undefined)
- TGI [6]: > 100 µM
- TGI [7]: > 100 µM
- TGI [9]: > 100 µM

Structure (SMILES): CN(C)c1ccc(N=Nc2c([O-])ccc3ccccc23)cc1.[C-]#[O+].[C-]#[O+].[Ir]
- GI50 [1]: 19.3 µM
- TGI [1]: 70.9 µM
- GI50 [7]: 26 µM
- TGI [7]: 59 µM
- GI50 [8]: 20.3 µM
- TGI [8]: 50.2 µM
- GI50 [2]: 15.8 µM
- TGI [2]: 31.8 µM
- GI50 [3]: 18.8 µM
- TGI [3]: 36.2 µM
- GI50 [4]: 17.7 µM
- TGI [4]: 34.5 µM

Structure (SMILES): CCOc1ccc(NC(=O)CC2SC(N)=NC2=O)cc1 (centres undefined)
- TGI [7]: > 100 µM
- TGI [8]: > 100 µM
- TGI [9]: > 100 µM

Structure (SMILES): O=C(NN1C(=O)CSC1c1ccc(Cl)cc1)c1[nH]c2ccc(F)cc2c1-c1ccccc1 (centres undefined)
- GI50 [1]: 2.84 µM
- TGI [1]: 9.37 µM
- GI50 [2]: 2.85 µM
- TGI [2]: 8.58 µM
- GI50 [3]: 2.81 µM
- TGI [3]: 7.86 µM
- GI50 [4]: 2.72 µM
- TGI [4]: 8.89 µM
- GI50 [5]: 3.73 µM
- TGI [5]: 14.2 µM

Structure (SMILES): O=C(Nc1ccc2c(c1)oc(=O)c1ccccc12)C(Cl)Cl
- TGI [1]: > 100 µM
- TGI [2]: > 100 µM
- TGI [3]: > 100 µM
- TGI [4]: > 100 µM
- TGI [5]: > 100 µM

Structure (SMILES): COc1ccc(-c2ccc(/C=N/n3c(COc4ccc(Cl)cc4)n[nH]c3=S)o2)c([N+](=O)[O-])c1
- GI50 [1]: 47.7 µM
- TGI [1]: > 100 µM
- GI50 [2]: 16.9 µM
- TGI [2]: 56.9 µM
- GI50 [3]: 14.2 µM
- TGI [3]: 48.5 µM
- GI50 [4]: 12.2 µM
- TGI [4]: 35.9 µM
- GI50 [5]: 9.57 µM
- TGI [5]: 82.4 µM

Structure (SMILES): Cc1ncc([N+](=O)[O-])n1CCNC(=O)CCCn1cnc([N+](=O)[O-])n1
- TGI [1]: > 100 µM
- TGI [2]: > 100 µM
- TGI [3]: > 100 µM
- TGI [4]: > 100 µM
- TGI [5]: > 100 µM

Structure (SMILES): C/C(=N\NC(N)=O)C(CN(C)C)C(c1ccccc1)c1c(O)c2ccccc2oc1=O (centres undefined)
- TGI [1]: > 100 µM
- TGI [2]: > 100 µM
- TGI [3]: > 100 µM
- TGI [4]: > 100 µM
- TGI [5]: > 100 µM

Structure (SMILES): CCc1c2c(nc3cccc(N)c13)-c1cc3c(c(=O)n1C2)COC(=O)[C@]3(O)CC
- TGI [1]: > 100 µM
- GI50 [2]: < 0.001 µM
- TGI [2]: 0.0101 µM
- GI50 [3]: 0.053 µM
- TGI [3]: > 100 µM
- GI50 [4]: 0.349 µM
- TGI [4]: > 100 µM
- TGI [5]: > 100 µM

Structure (SMILES): CC(C)[C@@H](COC(C)(C)C)N=CN1CCc2c([nH]c3ccccc23)C1
- TGI [6]: > 100 µM
- TGI [7]: > 100 µM
- TGI [9]: > 100 µM

Structure (SMILES): C/C1=C\CC[C@@](C)(O)[C@@H]2CC3[C@@H](OC(=O)C34CC4)[C@@H](O2)[C@H](C)CCC1 (some centres undefined)
- GI50 [2]: 0.238 µM
- TGI [2]: 25.3 µM
- GI50 [3]: 19.6 µM
- TGI [3]: 43.5 µM
- GI50 [4]: 20.1 µM
- TGI [4]: 44.6 µM
- GI50 [5]: 47.2 µM
- TGI [5]: > 100 µM

Structure (SMILES): CS(=O)(=O)Nc1cc(-c2ccc3ncnc(Nc4ccc5c(cnn5Cc5ccc(F)cc5)c4)c3c2)cnc1Cl
- GI50 [1]: 0.246 µM
- TGI [1]: 2.04 µM
- GI50 [2]: 0.404 µM
- TGI [2]: 10.2 µM
- GI50 [4]: 1.8 µM
- TGI [4]: 8.68 µM
- GI50 [5]: 0.256 µM
- TGI [5]: 2.23 µM

Structure (SMILES): Fc1ccc(Nc2nccc(-c3c(-c4ccc(C(F)(F)F)cc4)nn4ncccc34)n2)cc1F
- GI50 [1]: > 25 µM
- TGI [1]: > 25 µM
- GI50 [2]: > 20.2 µM
- TGI [2]: > 25 µM
- GI50 [3]: > 25 µM
- TGI [3]: > 25 µM
- GI50 [4]: > 25 µM
- TGI [4]: > 25 µM
- GI50 [5]: > 25 µM
- TGI [5]: > 25 µM

Structure (SMILES): Nc1nc(OCc2ccccc2)nc2[nH]ncc12
- GI50 [1]: 17.5 µM
- TGI [1]: 38.5 µM
- GI50 [2]: 16.1 µM
- TGI [2]: 33.1 µM
- GI50 [3]: 11.4 µM
- TGI [3]: 25.6 µM
- GI50 [4]: 16.8 µM
- TGI [4]: 39.9 µM
- GI50 [5]: 4.12 µM
- TGI [5]: 9.69 µM

Structure (SMILES): O=[N+]([O-])c1ccc(CS(=O)Cc2ccccc2)cc1 (centres undefined)
- TGI [1]: > 100 µM
- TGI [2]: > 100 µM
- TGI [3]: > 100 µM
- TGI [4]: > 100 µM
- TGI [5]: > 100 µM

Structure (SMILES): Cn1cc(-c2ccc(CNc3cc(-c4cnc5cc(OCCCN6CCCC6)ccn45)ncn3)cc2)cn1
- GI50 [1]: 3.52 µM
- TGI [1]: 26.2 µM
- GI50 [2]: 2.45 µM
- TGI [2]: 10.4 µM
- GI50 [3]: 1.91 µM
- TGI [3]: 3.56 µM
- GI50 [4]: 3.63 µM
- TGI [4]: > 100 µM
- GI50 [5]: 18.7 µM
- TGI [5]: 43.1 µM

Structure (SMILES): O=c1oc2ccc(Cl)cc2c(=O)n1-c1ccc(I)cc1F
- GI50 [1]: 0.161 µM
- TGI [1]: 1.11 µM
- GI50 [2]: 0.258 µM
- TGI [2]: > 23.9 µM
- GI50 [3]: 0.25 µM
- TGI [3]: 3.57 µM
- GI50 [4]: 0.924 µM
- TGI [4]: 6.92 µM
- GI50 [5]: 0.152 µM
- TGI [5]: 1.11 µM

Structure (SMILES): CC(C)OC(=O)c1ccc2[nH]c(O)c(C(=Nc3ccc(N(C)C(=O)CN4CCN(C)CC4)cc3)c3ccccc3)c2c1
- GI50 [1]: 0.0994 µM
- TGI [1]: 1.15 µM
- GI50 [2]: 0.485 µM
- TGI [2]: 2.07 µM
- GI50 [3]: 0.16 µM
- TGI [3]: 0.715 µM
- GI50 [4]: 0.494 µM
- TGI [4]: 2.17 µM
- GI50 [5]: 1.2 µM
- TGI [5]: 3.6 µM

Structure (SMILES): C[C@H](CS(C)(=O)=O)Nc1ncc2cc(Oc3ccc(F)cc3F)c(=O)n(C)c2n1
- GI50 [1]: > 25 µM
- TGI [1]: > 25 µM
- GI50 [2]: > 25 µM
- TGI [2]: > 25 µM
- GI50 [3]: > 25 µM
- TGI [3]: > 25 µM
- GI50 [4]: > 25 µM
- TGI [4]: > 25 µM
- GI50 [5]: > 25 µM
- TGI [5]: > 25 µM

Structure (SMILES): C=C(C)CCC(C)N1CCC(N2CCC(C(=O)NCCc3ccccc3)CC2)CC1 (centres undefined)
- GI50 [1]: 20.4 µM
- TGI [1]: 61.8 µM
- GI50 [2]: 19.6 µM
- TGI [2]: > 100 µM
- GI50 [3]: 29.9 µM
- TGI [3]: > 100 µM
- GI50 [4]: 79.2 µM
- TGI [4]: > 100 µM
- GI50 [5]: 13.4 µM
- TGI [5]: > 100 µM
